Measured values reported in patent publication EP0739978A2, “Hydantoinase from agrobacterium tumefaciens and its use for the preparation of optically pure N-carbamyl-D-amino acids from racemic hydantoins” (W.R. Grace & Co.-Conn., priority 1995, dated 1996).

Tests used:
hydantoinase [1] = settings: Pseudomonas sp. AJ 11220 hydantoinase; cited from earlier work
hydantoinase [2] = settings: Agrobacterium radiobacter hydantoinase; cited from earlier work
[3] = test system: A. tumefaciens ATCC 55632 hydantoinase; assay: Substrate specificity; format: biochemical; settings: for % Relative Activity with: ATCC 55632: Table 6 values rescaled to 5,6-Dihydrouracil = 100; for Relative Activity (%): substrate 5 mg/ml in 50 mM Tris-HCl pH 9.0, 40°C, 10 minutes, DL-5-Methylhydantoin = 100
Procedure: A. Temperature/activity relationship. Hydantoinase activity was measured using a modification of the colorimetric procedure for detecting N-carbamyl amino acids with p-dimethylaminobenzaldehyde (PDMB) as described by Cecere, et al. (FEBS Letters, 57:192 (1975)). Reaction mixtures (total vol. of 0.4 ml in microfuge tubes) contained 75 µmol of DL-5-methylhydantoin (unless designated otherwise) in 50 mM Tris-HCl buffer (pH 9.0) and a suitable amount of hydantoinase extract. Hydantoinase extracts were added to reaction mixtures which had been pre-equilibrated at 40°C, and after 10 minutes incubation at this temperature, reactions were terminated by the addition of 100 µl of 10% (weight/volume) trichloroacetic acid, followed by 100 µl of 10% (weight/volume) PDMB in 6 N HCl. The solutions were mixed, diluted with 0.6 ml of water and centrifuged at 10,000 rpm for 5 minutes. The absorbencies of the supernatant fractions were determined at 440 nm with a Shimadzu Model 160 spectrophotometer. One unit of activity is defined as the amount of enzyme required to form 1 µmol of N-carbamyl amino acid under these conditions. Protein was determined by the BCA assay as per the manufacturer's instructions. (Pierce Chemical Co., Rockford, IL). Specific activity is expressed as units per mg protein. For the determination of the effect of temperature on hydantoinase activity, hydantoinase extracts of A. tumefaciens were added to reaction mixtures pre-equilibrated at various temperatures and activities were determined by the aforementioned assay. Controls (minus enzyme) were run for each temperature and the values obtained were subtracted from the test sample.
Referring to Table 5, the hydantoinase of the present invention differs from previously described hydantoinases in its combination of high temperature and pH optima, pH stability and lack of requirement or stimulation by metal ions. […] E. Substrate specificity. The substrate specificity of the A. tumefaciens ATCC 55632 hydantoinase was determined by adding hydantoinase extract to 0.4 ml of substrate solution (5 mg/ml 50 mM Tris-HCl buffer, pH 9.0) and incubating the reaction mixtures at 40°C in a water bath for 10 minutes in sealed tubes. The reactions were terminated and further processed as described previously. Controls (minus enzyme) were run for each substrate the values obtained were subtracted from the test sample.

hydantoinase [4] = molecular target: hydantoinase (Pseudomonas putida, UniProt Q59699); settings: Pseudomonas fluorescens DSM 84 hydantoinase; cited from earlier work
Chain of hydantoinase (Pseudomonas putida, UniProt Q59699) (Q59699 whole entry): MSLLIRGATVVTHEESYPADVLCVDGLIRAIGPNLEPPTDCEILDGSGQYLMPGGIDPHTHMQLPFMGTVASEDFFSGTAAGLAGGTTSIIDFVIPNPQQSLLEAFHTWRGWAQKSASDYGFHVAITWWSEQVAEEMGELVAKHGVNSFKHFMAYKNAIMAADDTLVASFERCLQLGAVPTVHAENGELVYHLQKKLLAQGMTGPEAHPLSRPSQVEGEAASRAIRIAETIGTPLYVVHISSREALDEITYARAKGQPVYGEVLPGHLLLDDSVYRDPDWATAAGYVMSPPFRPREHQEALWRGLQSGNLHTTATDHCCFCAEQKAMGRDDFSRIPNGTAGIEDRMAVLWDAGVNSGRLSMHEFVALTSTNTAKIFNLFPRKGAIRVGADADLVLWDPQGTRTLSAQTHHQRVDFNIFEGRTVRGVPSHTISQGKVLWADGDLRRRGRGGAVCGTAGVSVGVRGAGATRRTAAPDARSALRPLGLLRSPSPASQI

hydantoinase [5] = settings: Agrobacterium IP I671 hydantoinase; cited from earlier work
hydantoinase [6] = settings: Arthrobacter crystallopoietes AM2 hydantoinase; cited from earlier work
hydantoinase [7] = settings: P. striata hydantoinase; cited from earlier work
[8] = test system: A. tumefaciens ATCC 55632; assay: Induction of hydantoinase activity, basal salts medium with yeast extract and glucose; format: cell-based; settings: addition 2 mg/ml, cells harvested after 8 hours; no addition 0.06
Procedure: In particular it should be noted that the substrate specificity of hydantoinase from A. tumefaciens ATCC 55632 differs substantially from those described for other Agrobacterium species (5 and 6) due to its high relative activity with dihydrouracil and 5-methylhydantoin and its relatively low rate of hydrolysis with 5-benzylhydantoin F. Induction of hydantoinase activity. A. tumefaciens ATCC 55632 was grown in a medium containing basal salts medium, 1% yeast extract and 20 mM glucose. Various hydantoins or carbamyl amino acids were added to a concentration of 2 mg/ml to induce hydantoinase activity. Cells were harvested after 8 hours, hydantoinase extracts were prepared and hydantoinase activity was determined. […]

[9] = test system: Hydantoinase extract of A. tumefaciens ATCC 55632; assay: Hydantoinase activation by metals; format: biochemical; settings: 2 mM metal ion, dialyzed extract pre-incubated 30 minutes, assay at 40°C pH 9.0; control without addition 26.4
Procedure: Reaction mixtures (total vol. of 0.4 ml in microfuge tubes) contained 75 µmol of DL-5-methylhydantoin (unless designated otherwise) in 50 mM Tris-HCl buffer (pH 9.0) and a suitable amount of hydantoinase extract. Hydantoinase extracts were added to reaction mixtures which had been pre-equilibrated at 40°C, and after 10 minutes incubation at this temperature, reactions were terminated by the addition of 100 µl of 10% (weight/volume) trichloroacetic acid, followed by 100 µl of 10% (weight/volume) PDMB in 6 N HCl. The solutions were mixed, diluted with 0.6 ml of water and centrifuged at 10,000 rpm for 5 minutes. The absorbencies of the supernatant fractions were determined at 440 nm with a Shimadzu Model 160 spectrophotometer. One unit of activity is defined as the amount of enzyme required to form 1 µmol of N-carbamyl amino acid under these conditions. Protein was determined by the BCA assay as per the manufacturer's instructions. […] Specific activity is expressed as units per mg protein.
D. Hydantoinase activation by metals. […] Solutions (360 µl) containing either 2 mM Mg^++, Co^++ or Ni^++ in 50 mM Tris buffer, pH 9.0 were pre-incubated with dialyzed hydantoinase extract for 30 minutes at ambient temperature. The reaction mixtures were equilibrated in a 40°C water bath for 2 minutes. The hydantoinase assay was started immediately with the addition of 40 µl DL-5-methylhydantoin (100 mg/ml in 50 mM Tris-HCl buffer, pH 9.0).

[10] = test system: A. tumefaciens ATCC 55632; assay: Induction of hydantoinase activity, complex medium (separate experiment); format: cell-based; settings: for Specific Activity (Units/mg): inducer 1 gm/liter, complex medium, 24 hours at 30°C, no inducer 0.13
Procedure: 2,4-Thiouracil (2,4-dithiouracil) has been reported to induce hydantoinase activity in Agrobacterium IP I-671 by 40-fold [Meyer, et al., FEMS 109:71(1993)]. In a separate experiment, hydantoinase activities were determined following the growth of A. tumefaciens ATCC 55632 on a complex medium (750 ml) (see media preparation described in Example 1) containing the inducing compounds at 1 gm/liter. The culture media were inoculated with 24 hour seed culture of A. tumefaciens ATCC 55632 and incubated for 24 hours with shaking at 30°C. Hydantoinase extracts were prepared and the effect of 2,4-thiouracil on hydantoinase induction of A. tumefaciens is shown in Table 9.

Agrobacterium IP I-671 = settings: cited from earlier work

## O=C1NC(=O)C(Cc2ccccc2)N1 (racemic) [DL-5-Benzylhydantoin]
Hydantoinase [1]
  % Relative Activity with: 4: 57%
Hydantoinase [2]
  % Relative Activity with: 5: 32%
[3]
  % Relative Activity with: ATCC 55632: 15%
  Relative Activity (%): 19%
Hydantoinase [4]
  % Relative Activity with: 2: 2%
Hydantoinase [5]
  % Relative Activity with: 6: 100%

## O=C1NC(=O)C(c2ccccc2)N1 (racemic) [DL-5-Phenylhydantoin]
Hydantoinase [1]
  % Relative Activity with: 4: 34%
Hydantoinase [2]
  % Relative Activity with: 5: 51%
[3]
  % Relative Activity with: ATCC 55632: 68%
  Relative Activity (%): 85%
Hydantoinase [6]
  % Relative Activity with: 1: 37%
Hydantoinase [7]
  % Relative Activity with: 3: 25%

## Tryptophan hydantoin
[8]
  Specific Activity (U/mg): 0.10 U/mg

## [Ni+2] [Nickel]
[9]
  Hydantoinase Activity (Units/ml): 25.0 Units/ml

## CC(C)C1NC(=O)NC1=O (racemic) [DL-5-Isopropylhydantoin]
[3]
  Relative Activity (%): 73%

## CCC(C)C1NC(=O)NC1=O (racemic) [DL-5-(sec)-Butylhydantoin]
[3]
  Relative Activity (%): 76%

## O=C1CNC(=O)N1 [Hydantoin]
[10]; A. tumefaciens ATCC 55632, versus no inducer
  increase of hydantoinase activity: 10 fold
[10]
  Specific Activity (Units/mg): 1.37 Units/mg
Agrobacterium IP I-671; FEMS 109:71, 1993
  induction of hydantoinase activity (in words): does not induce hydantoinase activity
[8]
  Specific Activity (U/mg): 1.44 U/mg

## NC(=O)NCC(=O)O [Hydantoic acid]
[8]
  Specific Activity (U/mg): 1.34 U/mg

## CC(C)CC1NC(=O)NC1=O (racemic) [DL-5-Isobutylhydantoin]
[3]
  Relative Activity (%): 77%

## [Co+2] [Cobalt]
[9]
  Hydantoinase Activity (Units/ml): 27.9 Units/ml

## S=c1cc[nH]c(=S)[nH]1 [2,4-Thiouracil]
[10]; A. tumefaciens ATCC 55632
  induction of hydantoinase activity (in words): does not appear to induce hydantoinase activity
[10]
  Specific Activity (Units/mg): 0.15 Units/mg
Agrobacterium IP I-671; Meyer, et al., FEMS 109:71(1993)
  induction of hydantoinase activity: 40 fold

## CN1CC(=O)NC1=O [1-Methylhydantoin]
[8]
  Specific Activity (U/mg): 0.09 U/mg

## C[C@H](NC(N)=O)C(=O)O [N-carbamyl alanine]
[8]
  Specific Activity (U/mg): 0.44 U/mg

## O=C1NC(=O)C(CO)N1 (racemic) [DL-5-Hydroxymethylhydantoin]
[3]
  Relative Activity (%): 22%

## [Mg+2] [Magnesium]
[9]
  Hydantoinase Activity (Units/ml): 24.8 Units/ml

## CSCCC1NC(=O)NC1=O (centres unmarked) [5(2-methylthioethyl) hydantoin]
Hydantoinase [1]
  % Relative Activity with: 4: 100%
Hydantoinase [2]
  % Relative Activity with: 5: 100%
[3]
  % Relative Activity with: ATCC 55632: 65%
  Relative Activity (%): 81%
Hydantoinase [7]
  % Relative Activity with: 3: 48%
Hydantoinase [4]
  % Relative Activity with: 2: 41%
Hydantoinase [5]
  % Relative Activity with: 6: 55%

## O=C1CCNC(=O)N1 [5,6-Dihydrouracil]
Hydantoinase [1]
  % Relative Activity with: 4: 9%
[3]
  % Relative Activity with: ATCC 55632: 100%
  Relative Activity (%): 125%
Hydantoinase [6]
  % Relative Activity with: 1: 78%
Hydantoinase [7]
  % Relative Activity with: 3: 100%
Hydantoinase [4]
  % Relative Activity with: 2: 100%
Hydantoinase [5]
  % Relative Activity with: 6: 10%
[8]
  Specific Activity (U/mg): 0.22 U/mg

## NC(=O)N[C@@H](Cc1ccccc1)C(=O)O [N-carbamylphenylalanine]
[8]
  Specific Activity (U/mg): 0.13 U/mg

## CC1NC(=O)NC1=O (racemic) [DL-5-Methylhydantoin]
Hydantoinase [2]
  % Relative Activity with: 5: 24%
[3]
  % Relative Activity with: ATCC 55632: 80%
  Relative Activity (%): 100%
Hydantoinase [6]
  % Relative Activity with: 1: 100%
Hydantoinase [7]
  % Relative Activity with: 3: 45%
Hydantoinase [5]
  % Relative Activity with: 6: 37%
[8]
  Specific Activity (U/mg): 1.65 U/mg
